In patent US20190160037A1, “METHOD OF TREATING, REDUCING, PREVENTING DETERIORATION OR IMPROVING VISUAL FUNCTION AFTER OPTIC NEUROPATHY” (TZU CHI UNIVERSITY, priority 2017, published 2019):

Key:
[1] = tested on: hippocampal dentate gyrus region; details: in vivo studies; cited from earlier work
[2] = tested on: apoptotic cells in the RGC layer; assay: TUNEL assay in the RGC layer of the retina after ON crush; assay type: in vivo, Wistar rats; details: 15 mg/Kg once by subcutaneous injection, n=6
Excerpt: (§1) An ON crush injury was induced as described in the previous report. (Chien J Y, Sheu J H, Wen Z H, Tsai R K, Huang S P. Neuroprotective effect of 4-(Phenylsulfanyl)butan-2-one on optic nerve crush model in rats. Experimental eye research. 2016; 143:148-57. Epub 2015/10/17). Briefly, rats were general anesthetized and eye were further anesthetized with topical 0.5% Alcaine eye drops. The conjunctiva was cut with Vannas scissors to expose the optic nerve. Care was taken to avoid damaging the small vessels around the ON. Injury was introduced by crushing the ON 2 mm posterior to the globe with a vascular clip (60 g micro-vascular clip, World Precision Instruments, FL, USA) for 30 seconds. After the surgery, Tobradex eye ointment (Alcon, Puurs, Belgium) was administered. The rats were kept under supervision and on electric heating pads at 37° C. for recovery. A sham operation was performed by exposing the ON in the same way but not crushed. […]
To ensure the use of equivalent fields for comparison, all retinal frozen sections were prepared with retinas at 1-2 mm distance from the ONH. […] The TUNEL positive cells in the RGC layer of each sample were counted in ten high powered fields (HPF, ×400 magnification), and three sections per eye were averaged. […]

GFAP = GFAP IHC and immunoblot in the retina after ON crush; assay type: in vivo, Wistar rats; details: 2 weeks after ON crush, vs ON-crushed, PBS-treated group, p<0.05
Excerpt: as §1, with “seconds.” for “seconds. After the surgery, Tobradex eye ointment (Alcon, Puurs, Belgium) was administered. The rats were kept under supervision and on electric heating pads at 37° C. for recovery. A sham operation was performed by exposing the ON in the same way but not crushed.”
(§2) IHC of ED1 (CD68, a marker of macrophage/microglia) in the ONs and IHC of GFAP in the retina using monoclonal antibody (ED1, 1:50; AbD Serotec, Oxford, UK) or polyclonal antibody (GFAP, 1:200; Cambridge, Mass., USA) was performed. […] For comparison, ED1 positive cells were counted in six HPF at the lesion site of ON (n=6 in each group).
(§3) Total retinal protein extracts from rat retina were prepared using modified radioimmunoprecipitation (RIPA) buffer. The protein concentrations were determined using the BCA (bicinchoninic acid) protein assay kit (Pierce). […] The proteins on the membranes were detected using an enhanced chemiluminescence (ECL) system (Amersham Biosciences). […]

microglia = details: cited from earlier work
iNOS = iNOS immunoblot in the retina after ON crush; assay type: in vivo, Wistar rats; details: two weeks after ON crush, ratio to GAPDH, vs PBS-treated
Excerpt: as §1, §3

[3] = tested on: ED1 (CD68, a marker of macrophage/microglia); assay: IHC of ED1 in the ONs after ON crush; assay type: in vivo, Wistar rats; details: 2 weeks after ON crush; 15 mg/Kg once by subcutaneous injection; n=6
Excerpt: as §1, §2

RGCs = assay: Retrograde Fluorogold labeling of RGCs, RGC density after ON crush; assay type: in vivo, Wistar rats
Excerpt: (§4) An ON crush injury was induced as described in the previous report. (Chien J Y, Sheu J H, Wen Z H, Tsai R K, Huang S P. Neuroprotective effect of 4-(Phenylsulfanyl)butan-2-one on optic nerve crush model in rats. Experimental eye research. 2016; 143:148-57. Epub 2015/10/17). Briefly, rats were general anesthetized and eye were further anesthetized with topical 0.5% Alcaine eye drops. The conjunctiva was cut with Vannas scissors to expose the optic nerve. Care was taken to avoid damaging the small vessels around the ON. Injury was introduced by crushing the ON 2 mm posterior to the globe with a vascular clip (60 g micro-vascular clip, World Precision Instruments, FL, USA) for 30 seconds. After the surgery, Tobradex eye ointment (Alcon, Puurs, Belgium) was administered. The rats were kept under supervision and on electric heating pads at 37° C. for recovery. A sham operation was performed by exposing the ON in the same way but not crushed. Oroxyiln A (15 mg/Kg in 0.2 ml phosphate-buffered saline) or phosphate-buffered saline (PBS control) was immediately administered after ON crush once by subcutaneous injection.
Retrograde labeling of RGCs with Fluorogold (FG) and densities of RGCs. The detailed procedures have been described in the previous reports. (Chien J Y, Sheu J H, Wen Z H, Tsai R K, Huang S P. Neuroprotective effect of 4-(Phenylsulfanyl)butan-2-one on optic nerve crush model in rats. Experimental eye research. 2016; 143:148-57. Epub 2015/10/17; Tsai R K, Chang C H, Wang H Z. Neuroprotective effects of recombinant human granulocyte colony-stimulating factor (G-CSF) in neurodegeneration after optic nerve crush in rats. Experimental eye research. 2008; 87(3):242-50. Epub 2008/07/08). Briefly, retrograde labeling of RGCs with FG was performed one week before sacrificing to avoid overcounting RGCs by mixing labeled RGCs with dye-engulfed macrophages and microglia. (Huang T L, Huang S P, Chang C H, Lin K H, Sheu M M, Tsai R K. Factors influencing the retrograde labeling of retinal ganglion cells with fluorogold in an animal optic nerve crush model. Ophthalmic research. 2014; 51(4):173-8. Epub 2014/03/26). The rats were anesthetized using a ketamine (100 mg/kg) and xylazine (10 mg/kg) mixture, and then placed in a stereotactic apparatus (Stoelting, Wood Dale, Ill., USA). […] One week after labeling, the eyeballs were harvested after euthanasia of the animals. The eyeballs were placed in 10% formalin and the whole retina was then carefully dissected, flattened. The retina was examined with a 400 epi-fluorescence microscope (Axioskop; Carl Zeiss Meditec. Inc., Jena, Germany) equipped with a filter set (excitation filter: 350-400 nm; barrier filter: 515 nm), as well as a digital camera (Axiocam MRm) and software (Axiovision 4.0). The retinas were examined for RGCs at a distance of 1 or 3 mm ([…] from the center to provide the central and mid-peripheral RGC densities respectively. Eight randomly chosen areas (38250 μm2; […]) in the central (about 40% of the central area) and mid-peripheral (about 30% of the mid-periphery) regions of each retina (n=6 per group) were counted. The averages of these areas were taken as the mean density of RGCs per retina. RGC survival percentage was defined as the number of RGCs in each treatment group divided by the number of RGCs in the sham-operated retina, multiplied by 100.

COX-2 = COX-2 immunoblot in the retina after ON crush; assay type: in vivo, Wistar rats; details: two weeks after ON crush, ratio to GAPDH, vs PBS-treated
Excerpt: as §1, §3

[4] = tested on: rat model subject to ON crush; assay: Flash visual-evoked potentials (FVEPs) after ON crush; assay type: in vivo, Wistar rats; details: 2 weeks after ON crush; 15 mg/Kg once by subcutaneous injection; n=6
Excerpt: as §4
For the functional evaluation of the ON, FVEPs were recorded 2 weeks after ON crush in 18 experimental rats. The groups in assessing FVEP were masked. […]

Brn-3a+ cells (RGCs) = assay: Brn3a-labeled flat-mounted retinas after ON crush; assay type: in vivo, Wistar rats; details: for densities of Brn-3a+ cells in mid-peripheral retina / densities of Brn-3a+ cells in the central retina: after ON crush, 15 mg/Kg once by subcutaneous injection, 15 mg/kg
Excerpt: as §4
Animals were euthanized and eyes were enucleated and fixed in 10% formalin for 1 hour. Retina flat mounts were subjected to immunofluorescent staining for Brn-3a as previously described. (Tual-Chalot S, Allinson K R, Fruttiger M, Arthur H M. Whole Mount Immunofluorescent Staining of the Neonatal Mouse Retina to Investigate Angiogenesis In vivo. 2013; (77):e50546). In brief, flat mounts were washed with PBS and blocked with blocking buffer (PBS with 0.3% Triton-X and 5% Fetal Bovine Serum) for 1 hour. Flat mounts were then incubated with primary monoclonal antibody Brn-3a (1:200; Santa Cruz, Calif., USA) for 24 hours, washed with PBS and treated with secondary antibody Alexa flour 488 (1:400; Life Technologies, OR, USA) and incubated overnight. 8 to 10 microphotographs were captured for every retina flat mount covering central and mid peripheral region.

RAW264.7 macrophages = details: through inhibiting the activation of NFκB-p65; cited from earlier work
[5] = compared to the PBS-treated group
[6] = relative to sham-operated retina, two weeks after ON crush
[7] = two weeks after ON crush, 15 mg/Kg once by subcutaneous injection, n=6

Structure (SMILES): COc1c(O)cc2oc(-c3ccccc3)cc(=O)c2c1O [oroxylin A, 5,7-dihydroxy-6-methoxyflavone]
- adult neurogenesis in the hippocampal dentate gyrus region [1]: stimulated
- amyloid (Aβ)-induced memory impairment [1]: ameliorated
- cerebral hypoperfusion-induced neuronal damage [1]: prevented
- TUNEL positive cells in the RGC layer [2]: 4.0±2.4 positive cells/HPG
- GFAP level in the retina (retinal gliosis) (GFAP): significantly reduced
- GFAP level in the retina (retinal gliosis) (GFAP; listed as Oroxylin A): attenuated retinal gliosis
- LPS-induced NO production (microglia): strong inhibitory activities
- expression level of iNOS in the retina (iNOS): reducing the expression level
- expression level of iNOS in the retina (iNOS; listed as Oroxylin A): suppressed the increase
- ED1 positive cells at the ON lesion site [3]: 33.5±16.3 cells/HPF
- RGC survival rate increase vs PBS-treated group, central retina (FG labeling) (RGCs; [5]): approximately 32.7%
- RGC survival rate increase vs PBS-treated group, mid-peripheral retina (FG labeling) (RGCs; [5]): ~33.6%
- RGC survival, central retina (FG labeling) (RGCs; [6]): 52.5 % survival
- RGC survival, mid-peripheral retina (FG labeling) (RGCs; [6]): 61.9 % survival
- densities of RGCs in mid-peripheral retina (FG labeling) (RGCs; [7]): 960±465 /mm^2
- densities of RGCs in the central retina (FG labeling) (RGCs; [7]): 1352±476 /mm^2
- expression level of COX-2 in the retina (COX-2): reducing the expression level
- expression level of COX-2 in the retina (COX-2; listed as Oroxylin A): suppressed the increase
- latency of the P1 wave in FVEP [4]: 100 ± 12 ms
- densities of Brn-3a+ cells in mid-peripheral retina (Brn-3a+ cells (RGCs)): 801±199 /mm^2
- densities of Brn-3a+ cells in the central retina (Brn-3a+ cells (RGCs)): 847±367 /mm^2
- densities of Brn-3a+ cells in mid-peripheral retina (Brn-3a+ cells (RGCs); listed as oroxylin-A): 800±199 /mm^2
- densities of Brn-3a+ cells in the central retina (Brn-3a+ cells (RGCs); listed as oroxylin-A): 894±367 /mm^2
- RGC survival rate increase vs PBS-treated group, central retina (Brn-3a) (Brn-3a+ cells (RGCs); [5]): approximately 30.4%
- RGC survival rate increase vs PBS-treated group, mid-peripheral retina (Brn-3a) (Brn-3a+ cells (RGCs); [5]): ~29.7%
- RGC survival, central retina (Brn-3a) (Brn-3a+ cells (RGCs); relative to sham-operated eyes): 64.9 % survival
- RGC survival, mid-peripheral retina (Brn-3a) (Brn-3a+ cells (RGCs); relative to sham-operated eyes): 73 % survival
- LPS-induced iNOS and cyclooxygenase-2 expression (RAW264.7 macrophages): suppresses
